Patent US10059704B2, “1,4-disubstituted 1,2,3-triazoles, methods for preparing same, and diagnostic and therapeutic uses thereof” (CENTRE NATIONAL DE LA RECHERCHE SCIENTIFIQUE (C.N.R.S.), priority 2011, dated 2018)
Like-named read-outs stand apart in the source and are kept apart here.

Assays:
nicotinic receptors Rα7 = nicotinic receptors Rα7 (Rattus norvegicus, UniProt Q05941); assay: biochemical; type: binding
[1] = Solubility (solvents listed in table); settings: solvents in which the compound is soluble, in words
[2] = rat frontal cortex membranes, [125I]α-bungarotoxin 2 nM, 22° C., 3 hours, Ki calculated from IC50 (Cheng and Prussof), read-out: Activity on Rα7

Chain of nicotinic receptors Rα7 (Q05941 23-502): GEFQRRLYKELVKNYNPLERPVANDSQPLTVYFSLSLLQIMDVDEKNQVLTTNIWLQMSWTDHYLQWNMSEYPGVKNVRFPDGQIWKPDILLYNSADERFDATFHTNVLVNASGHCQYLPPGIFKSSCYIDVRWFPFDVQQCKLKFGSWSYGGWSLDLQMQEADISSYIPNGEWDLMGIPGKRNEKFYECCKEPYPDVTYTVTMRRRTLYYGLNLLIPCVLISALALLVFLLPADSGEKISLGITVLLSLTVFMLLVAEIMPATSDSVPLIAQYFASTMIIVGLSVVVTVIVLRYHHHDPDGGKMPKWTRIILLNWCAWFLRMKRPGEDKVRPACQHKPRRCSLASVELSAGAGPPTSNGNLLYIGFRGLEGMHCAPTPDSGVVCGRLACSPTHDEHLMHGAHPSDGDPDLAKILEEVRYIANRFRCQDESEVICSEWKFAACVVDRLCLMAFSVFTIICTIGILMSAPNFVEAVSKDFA

Row | SMILES | Ki (nicotinic receptors Rα7) [nM] | melting point [°C] | Solubility [1] | Ki (nicotinic receptors Rα7; [2]) [nM]
1 | CN1[C@@H]2CC[C@H]1C[C@@H](n1cc(-c3ccccc3)nn1)C2 [Compound 16, Endo-3-(4-phenyl-1H-1,2,3-triazol-1-yl)tropane] | 168 ± 68 | 135 | M = 268.36 g/mol C16H20N4 CHCl3 − DMSO | 
2 | CN1[C@@H]2CC[C@H]1C[C@@H](n1cc(-c3ccc4sccc4c3)nn1)C2 [Compound 25, Endo-3-(4-(1-Benzothiophen-5-yl)-1H-1,2,3-triazol-1-yl)tropane] | 14 ± 4 | 163 | M = 324.44 g/mol C18H20N4S CHCl3 − DMSO | 
3 | CN1[C@@H]2CC[C@H]1C[C@@H](n1cc(-c3ccc(Cl)c(Cl)c3)nn1)C2 [Compound 24, Endo-3-(4-(3,4-dichlorophenyl)-1H-1,2,3-triazol-1-yl)tropane] | 110 ± 36 | 136 | M = 337.25 g/mol C16H18Cl2N4 CHCl3 − DMSO | 
4 | CN1[C@@H]2CC[C@H]1C[C@@H](n1cc(-c3ccc4occc4c3)nn1)C2 [Compound 26, Endo-3-(4-(1-benzofuran-5-yl)-1H-1,2,3-triazol-1-yl)topane] | 13 ± 5 | 104 | M = 308.38 g/mol C18H20N4O CHCl3 − DMSO | 
5 | CN1[C@@H]2CC[C@H]1C[C@@H](n1cc(-c3cccc(F)c3)nn1)C2 [Compound 22, Endo-3-(4-(3-fluorophenyl)-1H-1,2,3-triazol-1-yl)tropane] | 16 ± 9 | 124 | M = 286.35 g/mol C16H19FN4 CHCl3 − DMSO | 
6 | CN1[C@@H]2CC[C@H]1C[C@@H](n1cc(-c3ccc(Br)s3)nn1)C2 [Compound 27, Endo-3-(4-(5-bromothiophen-2-yl)-1H-1,2,3-triazol-1-yl)tropane] | 275 ± 43 | 138 | M = 353.28 g/mol C14H17BrN4S CHCl3 − DMSO | 
7 | COc1ccc(-c2cn([C@H]3C[C@H]4CC[C@@H](C3)N4C)nn2)cc1 [Compound 19, Endo-3-(4-(4-methoxyphenyl)-1H-1,2,3-triazol-1-yl)tropane] | 283 ± 76 | 118 | M = 298.38 g/mol C17H22N4O CHCl3 − DMSO | 
8 | Clc1ccc(-c2cn([C@H]3CN4CCC3CC4)nn2)cc1Cl [Compound 40, (R)-3-(4-(3,4-Dichlorophenyl)-1H-1,2,3-triazol-1-yl)quinuclidine] |  | 108 |  | 19 ± 6
9 | Fc1ccccc1-c1cn([C@H]2CN3CCC2CC3)nn1 [Compound 44, (R)-3-(4-(2-Fluorophenyl)-1H-1,2,3-triazol-1-yl)quinuclidine] |  | 94 |  | 13 ± 3
10 | OCc1ccc(-c2coc(-c3cn([C@H]4CN5CCC4CC5)nn3)c2)cc1 [Compound 90, (R)-[4-[5-[1-[quinuclidin-3-yl]-1H-1,2,3-triazol-4-yl]-3-furyl]phenyl]methanol] | 9 | 202 |  | 
11 | OCc1ccc(-c2cccc(-c3cn([C@H]4CN5CCC4CC5)nn3)c2)s1 [Compound 115, (R)-[5-[3-[1-[quinuclidin-3-yl]-1H-1,2,3-triazol-4-yl]phenyl]-2-thienyl]-methanol] | 0.5 | 176 |  | 
12 | Fc1ccc(-c2cccc(-c3cn([C@H]4CN5CCC4CC5)nn3)c2)cn1 [Compound 100, (R)-3-[4-[3-(6-fluoro-3-pyridyl)phenyl]-1H-1,2,3-triazol-1-yl]quinuclidine] |  | 164 |  | 16
13 | COc1ccc(-c2cn([C@H]3CN4CCC3CC4)nn2)cn1 [Compound 52, (R)-3-(4-(6-Methoxypyridin-3-yl)-1H-1,2,3-triazol-1-yl)quinuclidine] |  | 155 |  | 105 ± 29
14 | CN1[C@@H]2CC[C@H]1C[C@@H](n1cc(-c3ccc(F)cc3)nn1)C2 [Compound 17, Endo-3(4-(4-fluorophenyl)-1H-1,2,3-triazol-1-yl)tropane] | 210 ± 31 | 254 | M = 286.35 g/mol C16H19FN4 CHCl3 − DMSO | 
15 | Fc1cccc(-c2cn([C@H]3CN4CCC3CC4)nn2)c1 [Compound 43, (R)-3-(4-(3-Fluorophenyl)-1H-1,2,3-triazol-1-yl)quinuclidine] |  | 120 |  | 10 ± 1
16 | OCc1ccc(-c2ccc(-c3cn([C@H]4CN5CCC4CC5)nn3)o2)cc1 [Compound 84, (R)-[4-[5-[1-[quinuclidin-3-yl]-1H-1,2,3-triazol-4-yl]-2-furyl]-phenyl]-methanol] | 6 | 209 |  | 
17 | OCc1ccc(-c2cccc(-c3cn([C@H]4CN5CCC4CC5)nn3)c2)cc1 [Compound 98, (R)-[4-[3-[1-[quinuclidin-3-yl]-1H-1,2,3-triazol-4-yl]phenyl]phenyl]methanol] | 105 | 214 |  | 
18 | COc1ccc(-c2cn([C@H]3CN4CCC3CC4)nn2)cc1 [Compound 46, (R)-3-(4-(4-Methoxyphenyl)-1H-1,2,3-triazol-1-yl)quinuclidine] |  | 122 | M = 284.36 g/mol C16H20N4O DMSO | 
19 | c1cc(-c2ccc(-c3cn([C@H]4CN5CCC4CC5)nn3)s2)ccc1CN1CCOCC1 [Compound 102] |  | 222 |  | 0.9
20 | OCc1ccc(-c2ccc(-c3cn([C@H]4CN5CCC4CC5)nn3)cc2)s1 [Compound 114, (R)-[5-[4-[1-[quinuclidin-3-yl]-1H-1,2,3-triazol-4-yl]phenyl]-2-thienyl]methanol] | 160 | 234 |  | 
21 | c1cc2cc(-c3cn([C@H]4CN5CCC4CC5)nn3)ccc2s1 [Compound 55, (R)-3-(4 Benzo[b](thiophen-5-yl)-1H-1,2,3-triazol-1-yl) quinuclidine] |  | 178 |  | 19 ± 1
22 | Brc1cccc(-c2cn([C@H]3CN4CCC3CC4)nn2)c1 [Compound 83, (R)-3-[4-(3-bromophenyl)-1H-1,2,3-triazol-1-yl]quinuclidine] | 11 | 188 |  | 
23 | CN1CCN(Cc2ccc(-c3ccc(-c4cn([C@H]5CN6CCC5CC6)nn4)s3)cc2)CC1 [Compound 104, (R)-3-[4-[5-[4-[(4-methylpiperazin-1-yl)methyl]phenyl]-2-thienyl]-1H-1,2,3-triazol-1-yl]quinuclidine] |  | 214 |  | 0.3
24 | OCc1cccc(-c2ccc(-c3cn([C@H]4CN5CCC4CC5)nn3)cc2)c1 [Compound 95, (R)-[3-[4-[1-[quinuclidin-3-yl]-1H-1,2,3-triazol-4-yl]phenyl]phenyl]methanol] |  | 207 |  | 100
25 | Fc1ccc(-c2cn([C@H]3CN4CCC3CC4)nn2)cn1 [Compound 51, (R)-3-(4-(6-fluoropyridin-3-yl)-1H-1,2,3-triazol-1-yl) quinuclidine] |  | 147 |  | 469 ± 6
26 | COC(=O)c1ccc(-c2ccc(-c3cn([C@H]4CN5CCC4CC5)nn3)s2)cc1F [Compound 105, Methyl-2-fluoro-4-[5-[1-[(3R)-quinuclidin-3-yl]-1H-1,2,3-triazol-4-yl]-2-thienyl]benzoate] | 85 | 250 |  | 
